Source: patent US4670434A, “(2-oxo-3-methylene-1,2,3,5-tetrahydroimidazo[2,1-b]q uinazolinyl)oxyalkylamides useful as cyclic AMP phosphodiesterase inhibitors” (Syntex (U.S.A.) Inc., priority 1985, dated 1987)

Legend:
[1] = tested on: Human platelet cyclic AMP phosphodiesterase; test: Cyclic AMP phosphodiesterase assay; format: biochemical; settings: 1 μM cyclic AMP as substrate; human platelet enzyme; read-out: IC50 value, inhibition of cyclic AMP phosphodiesterase
Experimental: (§1) Cyclic AMP phosphodiesterase activity and inhibition of platelet aggregation were determined as follows.
Cyclic AMP phosphodiesterase assay
The inhibition of cyclic AMP phosphodiesterase activity by the subject compounds was assayed by the method of Filburn and Karn, Analyt. Biochem., 52: 505-516 (1973), using 1 μM cyclic AMP as the substrate. Human platelet cyclic AMP phosphodiesterase was obtained from human donors. Platelets were isolated and washed by centrifugation, the membranes ruptured by a sequential freeze-thaw procedure and hypotonic lysis and the soluble enzyme isolated by high speed centrifugation. The enzyme was stored in aliquots at -20° C.

[2] = tested on: human platelets; test: Platelet aggregation (turbidimetric); format: cell-based; settings: platelet rich plasma
Experimental: as §1
Blood was collected into evacuated tubes containing sodium citrate (30 mM). Platelet rich plasma was collected after centrifugation. Aggregation was followed by a turbidimetric procedure described by G. V. R. Born, J. Physiol., Lond., 162: 67P-68P (1962).

[3] = tested on: Mongrel dogs; test: Inotropic activity in anesthetized mongrel dogs; format: in vivo; settings: intravenous, anesthetized dog
Experimental: The inotropic activity of these compounds was determined as follows: Mongrel dogs were anesthetized i.v. with 35 mg/Kg sodium pentobarbital and supplemented as needed. Blood pressure was measured with a Statham pressure transducer via a cannula inserted from a femoral artery into the abdominal aorta. Heart rate was recorded by a cardiotachometer from a lead II electrocardiogram. Right ventricular contractile force was recorded from a Walton-Brodie strain gauge sutured to the right ventricle following a midsternal thoracotomy. A Harvard respirator was used to ventilate the dogs with room air through an endotracheal tube. The dog was bilaterally vagotomized. Following a midline laparotomy, a cannula was sutured into the duodenum for intraduodenal administration of test compound. A femoral vein was cannulated for administration of isoproterenol. All data were recorded on a Beckman R611 Dynograph.
To assess the responsiveness of each dog, isoproterenol was given i.v. at half-log interval doses from 0.007 to 2.1 or 6.67 μg/Kg. The test compound, N-cyclohexyl-N-methyl-4-(2-oxo-3-methylene-1,2,3,5-tetrahydroimidazo-[2,1- b]quinazolin-7-yl)oxybutanamide, was then administered intravenously at dose levels from 0.1 to 1.0 mg/Kg.

C=c1c(=O)[nH]c2n1Cc1cc(OCCCC(=O)N(C)C3CCCCC3)ccc1N=2 [N-cyclohexyl-N-methyl-4-(2-oxo-3-methylene-1,2,3,5-tetrahydroimidazo[2,1-b]quinazolin-7-yl)oxybutanamide]
IC50 [1]: 2.7 nM
IC50 [2]: 150 nM
Peak Effects as % of Max. Isoproterenol, Blood Pressure ([3]; 0.1 mg/kg): 42 % of Max. Isoproterenol
Peak Effects as % of Max. Isoproterenol, Heart Rate ([3]; 0.1 mg/kg): 18 % of Max. Isoproterenol
Peak Effects as % of Max. Isoproterenol, Rt. Ventricular Contractile Force ([3]; 0.1 mg/kg): 24 % of Max. Isoproterenol
Peak Effects as % of Max. Isoproterenol, Blood Pressure ([3]; 0.316 mg/kg): 58 % of Max. Isoproterenol
Peak Effects as % of Max. Isoproterenol, Heart Rate ([3]; 0.316 mg/kg): 28 % of Max. Isoproterenol
Peak Effects as % of Max. Isoproterenol, Rt. Ventricular Contractile Force ([3]; 0.316 mg/kg): 52 % of Max. Isoproterenol
Peak Effects as % of Max. Isoproterenol, Blood Pressure ([3]; 1.0 mg/kg): 65 % of Max. Isoproterenol
Peak Effects as % of Max. Isoproterenol, Heart Rate ([3]; 1.0 mg/kg): 34 % of Max. Isoproterenol
Peak Effects as % of Max. Isoproterenol, Rt. Ventricular Contractile Force ([3]; 1.0 mg/kg): 62 % of Max. Isoproterenol
